The source of these data is patent US7320984B2, “Remedies or preventives for urinary frequency or urinary incontinence and morphinan derivatives having nitrogen-containing heterocyclic group” (Toray Industries, Inc., priority 2002, dated 2008).

One assay concerns rhythmic bladder contractions in rats. Briefly: Inhibitory effect against rhythmic bladder contractions in rats. It counts as in vivo. The settings on record: anesthetized female SD rats, intravenous, dose 0.005 mg/kg body weight. In outline: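 Urethane-anesthetized (1.0 g/kg i.p.) female SD rats; saline infused into bladder to induce rhythmic contractions, intravesical pressure monitored. Compound given i.v. at 1 ml/kg in saline, 10% or 20% aqueous DMSO, or 5% aqueous xylitol. Inhibitory time = period intravesical pressure stayed ≤50% of post-dose level (onset within 10 min); vehicles tested alone.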
On to `C=CCN1CC[C@]23c4c5ccc(O)c4O[C@H]2[C@@H](N2C(=O)c4cccc(F)c4C2=O)CC[C@@]3(O)[C@H]1C5` [Compound 63, N-(17-allyl-4,5α-epoxy-3,14-dihydroxymorphinan-6α-yl)-3-fluorophthalimide], for which the “Mean Inhibitory Time of Rhythmic Bladder Contractions” value (from here on “Mean Inhibitory Time”) came out at 16.1 min.

The assay is the same for the next values; noted with them: anesthetized female SD rats, intravenous, dose 0.01 mg/kg body weight.
`C=CCN1CC[C@]23c4c5ccc(O)c4O[C@H]2[C@@H](N2C(=O)c4ccccc4C2=O)CC[C@@]3(O)[C@H]1C5` [Compound 64, N-(17-allyl-4,5α-epoxy-3,14-dihydroxymorphinan-6α-yl)-phthalimide]: the “Mean Inhibitory Time” value is given as 20.8 min.

The same assay, now with this note: anesthetized female SD rats, intravenous, dose 0.1 mg/kg body weight.
For `O=c1[nH]c2ccccc2c(=O)n1[C@@H]1CC[C@@]2(O)[C@H]3Cc4ccc(O)c5c4[C@@]2(CCN3CC2CC2)[C@H]1O5` [Compound 104, 3-(17-cyclopropylmethyl-4,5α-epoxy-3,14-dihydroxy-morphinan-6β-yl)-1H-quinazolin-2,4-dione], the “Mean Inhibitory Time” value turned out to be 13.5 min.
Still for that read-out and setting: to `O=C1c2cccc(O)c2C(=O)N1[C@@H]1CC[C@@]2(O)[C@H]3Cc4ccc(O)c5c4[C@@]2(CCN3CC2CC2)[C@H]1O5` [Compound 96, N-(17-cyclopropylmethyl-4,5α-epoxy-3,14-dihydroxy-morphinan-6β-yl)-3-hydroxy-phthalimide] belongs 12.9 min; to `CCCN1CC[C@]23c4c5ccc(O)c4O[C@H]2[C@H](N2C(=O)c4ccccc4C2=O)CC[C@@]3(O)[C@H]1C5` [Compound 94, N-(4,5α-epoxy-3,14-dihydroxy-17-propyl-morphinan-6β-yl)-phthalimide], 11.9 min; to `O=c1c2ccccc2[nH]c(=S)n1[C@@H]1CC[C@@]2(O)[C@H]3Cc4ccc(O)c5c4[C@@]2(CCN3CC2CC2)[C@H]1O5` [Compound 105, 3-(17-cyclopropylmethyl-4,5α-epoxy-3,14-dihydroxy-morphinan-6β-yl)-2-thioxo-2,3-dihydro-1H-quinazolin-4-one], 7.3 min.
Turning to `O=C1CC(c2ccccc2)C(=O)N1[C@@H]1CC[C@@]2(O)[C@H]3Cc4ccc(O)c5c4[C@@]2(CCN3CC2CC2)[C@H]1O5` (stereo partly drawn) [Compound 71, N-(17-cyclopropylmethyl-4,5α-epoxy-3,14-dihydroxymorphinan-6β-yl)-2-phenyl-succinimide], the “Mean Inhibitory Time” value worked out at 24.9 min.
The same measure, in the same setting: as for `C=CCN1CC[C@]23c4c5ccc(O)c4O[C@H]2[C@H](N2C(=O)c4ccc(Cl)cc4C2=O)CC[C@@]3(O)[C@H]1C5` [Compound 57, N-(17-allyl-4,5α-epoxy-3,14-dihydroxymorphinan-6β-yl)-4-chlorophthalimide], the figure is 24.2 min; as for `C=CCN1CC[C@]23c4c5ccc(O)c4O[C@H]2[C@@H](N2Cc4ccccc4C2=O)CC[C@@]3(O)[C@H]1C5` [Compound 87, 2-(17-allyl-4,5α-epoxy-3,14-dihydroxy-morphinan-6α-yl)-2,3-dihydro-isoindol-1-one], 6.4 min; as for `CN1CC[C@]23c4c5ccc(O)c4O[C@H]2[C@H](N2C(=O)c4ccccc4C2=O)CC[C@H]3[C@H]1C5` [Compound 95, N-(4,5α-epoxy-3-hydroxy-17-methyl-morphinan-6β-yl)-phthalimide], 15.0 min.

Still in this assay, the particulars now being: anesthetized female SD rats, intravenous, dose 1.0 mg/kg body weight.
`Oc1ccc2c3c1O[C@H]1[C@H](N4CCCC4)CC[C@@]4(O)[C@@H](C2)N(CC2CC2)CC[C@]314` [Compound 111, 17-cyclopropylmethyl-4,5α-epoxy-6β-(pyrrolidin-1-yl)-morphinan-3,14-diol]: the “Mean Inhibitory Time” value is 2.8 min.
Same read-out and setting: as for `O=C1C(Cc2ccccc2)CCN1[C@@H]1CC[C@@]2(O)[C@H]3Cc4ccc(O)c5c4[C@@]2(CCN3CC2CC2)[C@H]1O5` (stereo partly drawn) [Compound 47, 1-(17-cyclopropylmethyl-4,5α-epoxy-3,14-dihydroxy-morphinan-6β-yl)-3-benzyl-pyrrolidin-2-one], the figure is 21.8 min.
